Experiments:
GST-NSP16 SARS-CoV-2 = GST-NSP16 SARS-CoV-2 (Severe acute respiratory syndrome coronavirus 2, UniProt P0DTD1); assay: biochemical; format: binding
GST-NSP16 SARS-CoV-1 = GST-NSP16 SARS-CoV-1 (Severe acute respiratory syndrome coronavirus, UniProt P0C6X7); assay: biochemical; format: binding
GST-NSP16 MERS-CoV = GST-NSP16 MERS-CoV (Middle East respiratory syndrome-related coronavirus, UniProt K9N7C7); assay: biochemical; format: binding
[1] = Cell viability (resazurin) assay in normal lung fibroblasts; conditions: human, MRC-5 lung fibroblasts

Sequence of GST-NSP16 MERS-CoV (K9N7C7 6776-7078 limits assumed): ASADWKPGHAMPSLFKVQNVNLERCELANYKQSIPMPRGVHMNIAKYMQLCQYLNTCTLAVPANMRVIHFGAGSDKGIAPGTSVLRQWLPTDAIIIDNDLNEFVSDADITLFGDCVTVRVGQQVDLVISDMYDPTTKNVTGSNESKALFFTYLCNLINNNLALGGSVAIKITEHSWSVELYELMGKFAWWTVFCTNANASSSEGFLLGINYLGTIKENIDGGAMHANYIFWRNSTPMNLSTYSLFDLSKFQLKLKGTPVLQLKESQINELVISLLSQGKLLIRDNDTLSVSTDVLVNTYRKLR

Compound | Binding to SARS-CoV-2 nsp16 by MST (in words) (GST-NSP16 SARS-CoV-2) | Kd (GST-NSP16 SARS-CoV-2) [µM] | Binding to SARS-CoV-1 nsp16 by MST (in words) (GST-NSP16 SARS-CoV-1) | Binding to MERS-CoV nsp16 by MST (in words) (GST-NSP16 MERS-CoV) | Kd (GST-NSP16 SARS-CoV-1) [µM] | Kd (GST-NSP16 MERS-CoV) [µM] | CC50 at 72 h [1] [µM]
Cc1ccc2ccccc2c1COc1ccc2c(-c3cc4ccccc4oc3=O)cc(=O)oc2c1 [ZINC2121012, 7′-[(2-methylnaphthalen-1-yl)methoxy]-2H,2′H-3,4′-bichromene-2,2′-dione] | strong binding | 23.1 ± 1.05 | bound to neither SARS-CoV-1 nor MERS-CoV | bound to neither SARS-CoV-1 nor MERS-CoV |  |  | 
O=c1cc(-c2cc3ccccc3oc2=O)c2ccc(OCc3cccc4ccccc34)cc2o1 [ZINC2129028, 7′-(naphthalen-1-ylmethoxy)-2H,2′H-3,4′-bichromene-2,2′-dione] | strong binding | 60 ± 2.53 |  |  | 56.4 ± 1.85 | 48.1 ± 4.12 | 18.5 ± 0.66
COc1cccc2c(-c3cc4ccc(OCc5ccc6ccccc6c5)cc4oc3=O)cc(=O)oc12 [ZINC12880820, 8′-methoxy-7-[(naphthalen-2-yl)methoxy]-2H,2′H-[3,4′-bichromene]-2,2′-dione] | strong binding | 29.1 ± 2.86 |  |  | > 100 | 36.4 ± 1.12 | 

Reference: publication PMC9920298, “Coronavirus Inhibitors Targeting nsp16” (Molecules, 2023)
